Assay results published in paper PMC5731860, “Novel allylated monocarbonyl analogs of curcumin induce mitotic arrest and apoptosis by reactive oxygen species-mediated endoplasmic reticulum stress and inhibition of STAT3” (Oncotarget, 2017).

Key:
[1] = test system: GES-1; test: MTT assay, growth inhibition in normal gastric epithelial cells; assay type: cell-based, human; conditions: for inhibition at 20 µM: Homo sapiens, GES1, 24 h, normal gastric epithelial cells; for inhibition of the normal epithelial cells (selective cytotoxicity in cancer cell lines), in words: 20 μM, 24 h
Description: (§1) First, we investigated whether allylated MAC alter the viability or have cytotoxic effects on cells in culture. We have performed MTT tetrazolium reduction assay following exposure of cancer cells (gastric cancer, BGC823 and SGC-7901; colon cancer, HT-29, HCT-116 and SW-480) and normal gastric epithelial cells (GES-1) to all 20 allylated MAC at a concentration of 20 μM for 24 h. […] In addition, we also found notable solubility and stability profile of these compounds (Supplementary Figure 1).
(§2) Cells were plated at a density of 8 × 10^3 cells/well in 96-well plates and allowed to attach overnight. Stock solutions of allylated MAC and curcumin were prepared in DMSO and diluted in culture media to obtain appropriate concentration. Cells were treated for 24 h and 48 h, following which, 20 μL of 5 mg/ml MTT reagent was added. Purple formazan product was dissolved by the addition of 100 μL DMSO to each well. Absorbance was then monitored at 490 nm using a plate reader (Molecular Device Spectra MAX190, USA). Percentage of cytotoxicity was determined using the following formula: Growth inhibition (%) = (OD of control−OD of test/OD of control×100%).

[2] = test system: HT-29; test: MTT assay, growth inhibition; assay type: cell-based; conditions: Homo sapiens, HT-29, 24 h
Description: as §1, §2

[3] = test system: BGC-823; test: MTT assay, growth inhibition / cell viability; assay type: cell-based; conditions: Homo sapiens; for inhibition at 20 µM: BGC-823, 20 μM, 24 h
Description: as §1, §2

[4] = test system: SGC-7901; test: MTT assay, growth inhibition / cell viability; assay type: cell-based; conditions: Homo sapiens; for inhibition at 20 µM: 24 h
Description: as §1, §2

[5] = test system: SW-480; test: MTT assay, growth inhibition; assay type: cell-based, human; conditions: for % Of growth inhibition SW-480: 20 μM, 24 h; for inhibition at 20 µM: Homo sapiens, SW480, 24 h
Description: as §1, §2

[6] = test system: HCT-116; test: MTT assay, growth inhibition; assay type: cell-based, human; conditions: for inhibition at 20 µM: Homo sapiens, HCT-116, 24 h; for % Of growth inhibition HCT-116: 20 μM, 24 h
Description: as §1, §2

[7] = Body weight of xenograft mice; assay type: in vivo; conditions: 0–12 days, ip once a day; CA10 10 and 20 mg/kg, curcumin 50 mg/kg
Description: (§3) All animal experiments complied with the Wenzhou Medical University's Policy on the Care and Use of Laboratory Animals. Protocols for animal studies were approved by the Wenzhou Medical University Animal Policy and Welfare Committee (Approved documents: 2016/201). Athymic BALB/c nu/nu female mice weighing 20–22 g (6 weeks old) were purchased from Vital River Laboratories (Beijing, China). Animals were housed (6 animals/gage) at a constant room temperature with a 12/12-hr light/dark cycle and fed a standard rodent diet and water ad libitum. SGC-7901 cells were injected subcutaneously into the right flank of each mice at 1 × 10^6 cells in 0.1 mL PBS. Once tumors reached a volume of 100–200 mm^3, mice were randomly divided into 4 groups. These groups included mice treated with 10 mg/kg CA10, mice treated with 20 mg/kg CA10, mice treated 50 mg/kg curcumin, and control mice receiving vehicle alone. All treatments were carried out with intraperitoneal injections. The body weight and tumor volumes were monitored and determined by measuring length (l) and width (w) and calculated as tumor volume (V = 0.5 × l × w2) at the indicated time points. At the end of treatment period, mice were sacrificed and the tumors were removed and weighed for histological analyses and proteins measurement studies.

[8] = test system: SGC-7901 xenograft tumors; test: In vivo mouse xenograft model, tumor growth; parameters: species or system mice; conditions: ip once a day for 12 days, CA10 10 and 20 mg/kg, curcumin 50 mg/kg
Description: as §3

Row | SMILES | inhibition at 20 µM [1] [%] | inhibition at 20 µM [2] [%] | inhibition at 20 µM [3] [%] | inhibition at 20 µM ([4]; SGC-7901, 24 h) [%] | % Of growth inhibition SW-480 [5] [%] | inhibition at 20 µM [5] [%] | inhibition at 20 µM [6] [%] | % Of growth inhibition HCT-116 [6] [%] | inhibition of the normal epithelial cells (selective cytotoxicity in cancer cell lines), in words [1] | body weight of mice [7] | tumor weight and volume [8] | IC50 ([3]; BGC-823, 24 h) [µM] | IC50 ([3]; BGC-823, 48 h) [µM] | IC50 ([4]; SGC-7901, 24 h) [µM] | IC50 ([4]; SGC-7901, 48 h) [µM]
1 | C=CCc1cc(/C=C2\CN(C3CC3)C/C(=C\c3cc(OC)c(OC)cc3OC)C2=O)ccc1O [CA16] | 41.3 ± 5.22 | 68 ± 1.39 | 60.7 ± 5.64 | 60 ± 7.35 | 35.69 ± 5.91 | 33.8 to 57 | 60.1 ± 2.02 |  |  |  |  |  |  |  | 
2 | C=CCc1cc(/C=C2\CSC/C(=C\c3ccc(O)c(CC=C)c3)C2=O)ccc1O [CA9] | > 60 | 75.7 ± 2.18 | 69.3 ± 3.13 | > 80 |  | 78 ± 5.69 | 67.3 ± 5.03 |  |  |  |  |  |  |  | 
3 | C=CCc1cc(/C=C2\CN(C3CC3)C/C(=C\c3ccc(N4CCOCC4)cc3)C2=O)ccc1O [CA12] | 40 ± 3.29 | < 60 | 40.1 ± 4.65 | 52.5 ± 5.54 |  | 33.8 ± 1.98 | 70 | 70.99 ± 3.12 |  |  |  |  |  |  | 
4 | C=CCc1cc(/C=C2\CN(C3CC3)C/C(=C\c3ccc(N(C)C)cc3)C2=O)ccc1O [CA15] | 23.8 ± 4.79 | < 60 | 50.6 ± 2.49 | 50.5 ± 4.3 |  | 36.3 ± 1.7 | 55 | 43.17 ± 8.26 | minimal inhibition |  |  |  |  |  | 
5 | COc1cc(/C=C/C(=O)CC(=O)/C=C/c2ccc(O)c(OC)c2)ccc1O [curcumin] |  |  |  |  |  |  |  |  |  | no change | significant reduction | 54.4 ± 3.92 | 38.2 ± 1.02 | 62.2 ± 2.08 | 36.9 ± 3.17
6 | C=CCc1cc(/C=C2\CN(C3CC3)C/C(=C\c3ccc(OC)cc3OC)C2=O)ccc1O [CA19] | 62 ± 4.58 | 62.6 ± 7.39 | 59.2 ± 3.67 | 76.6 ± 5.18 |  | 60.4 ± 3.1 | 78.1 ± 4.72 |  |  |  |  |  |  |  | 
7 | C=CCc1cc(/C=C2\CN(C3CC3)C/C(=C\c3ccc(OC)c(OC)c3)C2=O)ccc1O [CA17] | 61.9 ± 1.41 | < 60 | 37 ± 4.35 | 73.7 ± 1.26 |  | 64.7 ± 4.65 | 78.1 ± 64 |  |  |  |  |  |  |  | 
8 | C=CCc1cc(/C=C2\CN(C3CC3)C/C(=C\c3ccc(OC(C)(C)C)cc3)C2=O)ccc1O [CA20] | 25.8 ± 1.86 | 71.16 ± 0.6 | 56.8 ± 0.81 | > 80 |  | 61.5 ± 6.1 | 70 | 73.62 ± 4.23 | minimal inhibition |  |  |  |  |  | 
9 | C=CCc1cc(/C=C2\CN(C3CC3)C/C(=C\c3ccc(N4CCN(C)CC4)cc3)C2=O)ccc1O [CA11] | 45.56 ± 0.39 | 63.3 ± 1.31 | 61.33 ± 0.48 | 61 ± 4.97 |  | 49.5 ± 6.47 | 55 | 52.05 ± 1.91 |  |  |  |  |  |  | 
10 | C=CCc1cc(/C=C2\CN(Cc3ccccc3)C/C(=C\c3ccc(O)c(CC=C)c3)C2=O)ccc1O [CA6] | 22.6 ± 6.08 | 79.7 ± 3.11 | 65.83 ± 0.52 | > 80 |  | 79.1 ± 4.2 | 70 | 72.58 ± 2.72 | minimal inhibition |  |  |  |  |  | 
11 | C=CCc1cc(/C=C2\CN(C3CC3)C/C(=C\c3ccc(O)c(CC=C)c3)C2=O)ccc1O [CA4] | 63.4 ± 2.67 | 74.3 ± 0.79 | 67.06 ± 0.4 | 77.8 ± 1.98 |  | 81 ± 5.36 | 55 | 44.18 ± 6.18 |  |  |  |  |  |  | 
12 | C=CCc1cc(/C=C2\COC/C(=C\c3ccc(O)c(CC=C)c3)C2=O)ccc1O [CA8] | 27 ± 3.4 | 71.1 ± 2.6 | 71.2 ± 1.07 | > 80 |  | 79.3 ± 4.37 | 55 | 38.83 ± 4.23 |  |  |  |  |  |  | 
13 | C=CCc1cc(/C=C2\CN(C3CC3)C/C(=C\c3ccc(N(CC)CC)cc3)C2=O)ccc1O [CA14] | 47.9 ± 8.09 | < 60 | 40.4 ± 5.7 | > 80 |  | 57 ± 3.57 | 55 | 52.10 ± 9.05 |  |  |  |  |  |  | 
14 | C=CCc1cc(/C=C2\CN(S(=O)(=O)c3ccccc3)C/C(=C\c3ccc(O)c(CC=C)c3)C2=O)ccc1O [CA5] | 63.8 ± 2.33 | 71.2 ± 1.99 | 63.3 ± 5.52 | > 80 |  | 77.1 ± 3.79 | 55 | 43.04 ± 4.24 |  |  |  |  |  |  | 
15 | C=CCc1cc(/C=C2\CN(C3CC3)C/C(=C\c3c(OC)cc(OC)cc3OC)C2=O)ccc1O [CA18] | 57.8 ± 3.58 | 63 ± 4.2 | 57.96 ± 0.01 | 61.3 ± 4.02 | 56.88 ± 3.82 |  | 74.8 ± 1.25 |  |  |  |  |  |  |  | 
16 | C=CCc1cc(/C=C2\CN(CC)C/C(=C\c3ccc(O)c(CC=C)c3)C2=O)ccc1O [CA1] | 22.8 ± 3.04 | < 60 | 60.4 ± 0.62 | 66.1 ± 8.88 |  | 71.3 ± 3.35 | 55 | 50.22 ± 7.62 | minimal inhibition |  |  |  |  |  | 
17 | C=CCc1cc(/C=C2\CCC/C(=C\c3ccc(O)c(CC=C)c3)C2=O)ccc1O [CA7] | > 60 | 79.5 ± 4.1 | 71.2 ± 3.07 | > 80 |  | 71.7 ± 1.15 | 67 ± 4.92 |  |  |  |  |  |  |  | 
18 | C=CCc1cc(/C=C2\CN(CCC)C/C(=C\c3ccc(O)c(CC=C)c3)C2=O)ccc1O [CA2] | 60.88 ± 0.41 | 67 ± 6.79 | 63 ± 8.7 | 79.8 ± 0.9 |  | 76 ± 6.31 | 60.6 ± 0.98 |  |  |  |  |  |  |  | 
